From patent US20260207570A1, “OPTIMIZED DOSING OF LERIGLITAZONE” (MINORYX THERAPEUTICS S.L., priority 2022, published 2026)

Experiments:
[1] = PBPK model input parameters: physicochemical
[2] = PBPK model input parameters: blood and plasma binding; assay type: in vitro ADME, human
[3] = Phase 1 safety and tolerability (treatment-emergent adverse events); assay type: in vivo, human
Procedure: Study design: A phase 1, randomized, double blind, placebo-controlled, single-center clinical study in 33 male healthy volunteers (HV) (19-54 years, 63.2-95.7 Kg) was conducted with leriglitazone HCl and divided in two parts: a single ascending dose (SAD) with three dose levels (30, 90 and 270 mg) in fasted conditions, followed with two dose levels (90 and 270 mg) in fed conditions; a multiple ascending dose (MAD) with a double-blind, parallel-design with two dose levels (135 and 270 mg) for 8 days and a separate cohort of subjects in an open-label parallel design with two dose levels (135 and 270 mg) including cerebrospinal fluid (CSF) collection on day 8. In the fasted conditions a fasting period of at least 4 hours was required before obtaining plasma samples. The food effect (FE) was assessed by comparing fasted with fed conditions (dosing after a high-fat breakfast per FDA definition with a calculated caloric content of 918 kcal). In the MAD part (fed) the medication was taken before a normal breakfast. Leriglitazone HCl was supplied by ChemConnection and an oral suspension of leriglitazone (20% w/v kleptose, 2% ethanol in 100 mM phosphate buffer pH=7.8) at 6 mg/ml was used in the study. Safety: Safety and tolerability assessments consisted of adverse events (AEs), clinical laboratory, vital signs, 12-lead electrocardiogram (ECG), and physical examination.

[4] = Biliary clearance in sandwich-cultured hepatocytes; assay type: in vitro ADME; conditions: sandwich-cultured hepatocytes
[5] = system: sandwich-cultured hepatocytes; experiment: Biliary clearance in sandwich-cultured hepatocytes; assay type: in vitro ADME; conditions: after scaling up
CYP2C8 = target: T1, CYP2C8 (Homo sapiens, UniProt P10632); experiment: Metabolism kinetics with recombinant CYP2C8; assay type: in vitro ADME; conditions: therapeutic range, up to 30 μM initial incubation concentration
T1 sequence (P10632 1-490): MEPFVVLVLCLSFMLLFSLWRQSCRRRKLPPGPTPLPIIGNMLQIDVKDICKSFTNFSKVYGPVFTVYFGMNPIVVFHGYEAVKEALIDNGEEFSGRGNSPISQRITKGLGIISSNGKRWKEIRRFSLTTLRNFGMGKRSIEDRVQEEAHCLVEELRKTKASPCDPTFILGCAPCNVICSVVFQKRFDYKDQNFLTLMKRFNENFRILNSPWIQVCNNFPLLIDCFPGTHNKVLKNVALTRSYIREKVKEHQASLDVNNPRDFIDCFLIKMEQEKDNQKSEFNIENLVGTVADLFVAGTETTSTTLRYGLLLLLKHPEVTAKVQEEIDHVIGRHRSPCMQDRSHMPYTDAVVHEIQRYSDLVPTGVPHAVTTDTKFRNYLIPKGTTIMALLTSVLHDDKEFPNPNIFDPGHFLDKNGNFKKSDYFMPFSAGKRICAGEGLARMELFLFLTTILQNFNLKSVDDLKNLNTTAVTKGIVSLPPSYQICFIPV
Excerpt: (§1) CYP2C8 and CYP3A4 were identified in vitro as the major contributing enzymes of leriglitazone with CYP2C8 mostly responsible for the formation of the main metabolite M3. Kinetic parameters of human CYP2C8 and CYP3A4 mediated metabolism of leriglitazone were studied in in vitro studies using recombinant CYP3A4 and CYP2C8 enzymes (ADMESCOPE, Finland). […] As the disappearance of leriglitazone was very slow especially at high initial concentrations, the accuracy of the fit was not as good as based on M3 formation. […] Thus, it was not possible to fit the kinetic parameters Km and Vmax.

CYP3A4 [6] = target: T2, CYP3A4 (Homo sapiens, UniProt P08684); experiment: CYP3A4 contribution to clearance (fm, CLint) for the PBPK model
Excerpt: as §1

CYP3A4 [7] = target: T2, CYP3A4; experiment: Metabolism kinetics with recombinant CYP3A4; assay type: in vitro ADME; parameters: purchased ADMESCOPE, Finland; conditions: used initial concentrations; Km and Vmax could not be fitted
Excerpt: as §1

T2 sequence (P08684 whole entry): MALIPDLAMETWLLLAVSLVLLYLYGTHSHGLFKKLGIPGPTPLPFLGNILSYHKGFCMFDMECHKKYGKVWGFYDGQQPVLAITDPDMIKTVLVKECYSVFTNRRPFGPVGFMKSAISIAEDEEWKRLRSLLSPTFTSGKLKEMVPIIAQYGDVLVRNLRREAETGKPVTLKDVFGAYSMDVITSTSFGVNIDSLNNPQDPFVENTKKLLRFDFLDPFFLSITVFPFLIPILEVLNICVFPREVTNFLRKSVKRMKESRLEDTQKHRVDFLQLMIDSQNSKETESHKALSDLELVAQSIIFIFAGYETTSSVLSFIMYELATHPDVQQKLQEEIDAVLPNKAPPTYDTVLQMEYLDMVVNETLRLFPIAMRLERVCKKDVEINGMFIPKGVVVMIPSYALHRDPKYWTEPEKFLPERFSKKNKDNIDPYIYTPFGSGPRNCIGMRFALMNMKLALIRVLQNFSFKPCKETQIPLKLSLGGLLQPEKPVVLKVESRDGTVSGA

CC(O)c1ccc(CCOc2ccc(CC3SC(=O)NC3=O)cc2)nc1 (stereo not shown) [Leriglitazone, 5-[[4-[2-[5-(1-hydroxyethyl)pyridin-2-yl]ethoxy]phenyl]methyl]-1,3-thiazolidine-2,4-dione]
Compound type [1]: Diprotic Base | logP [1]: 2.47 | pKa ([1]; two values): 4.97 | B:P [2]: 0.73 | fugut [2]: 1 | fraction unbound ([2]; human, plasma): 0.04 | Gastrointestinal disorders: E ([3]; 135 mg, N = 9): 2 | Gastrointestinal disorders: n (%) ([3]; 135 mg, N = 9): 1 (11) | General disorders and administration site conditions: E ([3]; 135 mg, N = 9): 1 | General disorders and administration site conditions: n (%) ([3]; 135 mg, N = 9): 1 (11) | Metabolism and nutrition disorders: E ([3]; 135 mg, N = 9): 1 | Metabolism and nutrition disorders: n (%) ([3]; 135 mg, N = 9): 1 (11) | Musculoskeletal and connective tissue disorders: E ([3]; 135 mg, N = 9): 3 | Musculoskeletal and connective tissue disorders: n (%) ([3]; 135 mg, N = 9): 3 (33) | Nervous system disorders: E ([3]; 135 mg, N = 9): 5 | Nervous system disorders: n (%) ([3]; 135 mg, N = 9): 3 (33) | Renal and urinary disorders: E ([3]; 135 mg, N = 9): 1 | Renal and urinary disorders: n (%) ([3]; 135 mg, N = 9): 1 (11) | TEAEs Total: E ([3]; 135 mg, N = 9): 13 | TEAEs Total: n (%) ([3]; 135 mg, N = 9): 5 (56) | Eye disorders: E ([3]; 270 mg, N = 8): 2 | Eye disorders: n (%) ([3]; 270 mg, N = 8): 1 (13) | Gastrointestinal disorders: E ([3]; 270 mg, N = 8): 4 | Gastrointestinal disorders: n (%) ([3]; 270 mg, N = 8): 3 (38) | General disorders and administration site conditions: E ([3]; 270 mg, N = 8): 1 | General disorders and administration site conditions: n (%) ([3]; 270 mg, N = 8): 1 (13) | Infections and infestations: E ([3]; 270 mg, N = 8): 2 | Infections and infestations: n (%) ([3]; 270 mg, N = 8): 2 (25) | Musculoskeletal and connective tissue disorders: E ([3]; 270 mg, N = 8): 1 | Musculoskeletal and connective tissue disorders: n (%) ([3]; 270 mg, N = 8): 1 (13) | Nervous system disorders: E ([3]; 270 mg, N = 8): 3 | Nervous system disorders: n (%) ([3]; 270 mg, N = 8): 3 (38) | Respiratory, thoracic and mediastinal disorders: E ([3]; 270 mg, N = 8): 3 | Respiratory, thoracic and mediastinal disorders: n (%) ([3]; 270 mg, N = 8): 3 (38) | TEAEs Total: E ([3]; 270 mg, N = 8): 16 | TEAEs Total: n (%) ([3]; 270 mg, N = 8): 8 (100) | hepatocyte CLint [4]: 0.358 µL/min/1e6 cells | microsomal CLint [4]: 0.5 µL/min/mg | biliary clearance as fraction of total clearance (feBIL) [5]: 19.5% | contribution of CYP2C8, fraction metabolized (CYP2C8): around 70% | CLint, CYP3A4 (CYP3A4 [6]; PBPK model input, calculated from estimated fm and mean CL/F): 0.0097 µL/min/pmol | share of metabolism, CYP3A4 (CYP3A4 [6]; before accounting for biliary and renal clearance): 30% | saturation of metabolism by recombinant CYP3A4 (CYP3A4 [7]): did not saturate
